Data: paper PMC10810011 (Expert opinion on drug delivery, 2023)

Tests used:
[1] = Thermodynamic; assay type: physicochemical; settings: pure water, room temperature, 24 h
[2] = molecular target: Opioid mu (Homo sapiens, UniProt P35372); assay: InVEST radioligand filter binding, Opioid mu; settings: M13 20 μM, 100 = no effect
[3] = test system: Caco-2/BBe cells; assay: Cancer-related protein expression, Human XL oncology array; assay type: cell-based; settings: Caco-2/BBe lysates, 24 h; free M13 5 μg/mL, M13-NL 10 μg/mL (5 μg/mL M13)
[4] = Chemical stability in acidic PBS; assay type: physicochemical; settings: acidic PBS pH 5.0 or 3.0, 37 °C, 2 h, HPLC
[5] = test system: 3D Caco-2/BBe cells; assay: Cytotoxicity in 3D cultured Caco-2/BBe cells; assay type: cell-based, human
[6] = molecular target: 5-HT2A (Homo sapiens, UniProt P28223); assay: InVEST radioligand filter binding, 5-HT2A; settings: M13 20 μM, 100 = no effect
Chain of 5-HT2A (P28223 whole entry): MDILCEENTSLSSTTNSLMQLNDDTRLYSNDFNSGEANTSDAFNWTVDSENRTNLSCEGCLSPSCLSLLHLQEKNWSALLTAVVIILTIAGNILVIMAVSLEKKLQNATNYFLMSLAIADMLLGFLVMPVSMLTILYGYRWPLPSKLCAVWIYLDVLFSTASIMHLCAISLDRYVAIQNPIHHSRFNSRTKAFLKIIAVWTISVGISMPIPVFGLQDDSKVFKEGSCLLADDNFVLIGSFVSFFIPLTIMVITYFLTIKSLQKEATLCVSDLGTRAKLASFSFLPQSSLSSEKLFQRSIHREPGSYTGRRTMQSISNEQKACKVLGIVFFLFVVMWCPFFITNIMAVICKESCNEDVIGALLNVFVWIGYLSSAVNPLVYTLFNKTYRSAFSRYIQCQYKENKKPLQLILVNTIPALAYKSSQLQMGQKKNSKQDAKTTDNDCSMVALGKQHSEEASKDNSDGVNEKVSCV

[7] = molecular target: 5-HT2B (Homo sapiens, UniProt P41595); assay: InVEST radioligand filter binding, 5-HT2B; settings: M13 20 μM, 100 = no effect
Chain of 5-HT2B (P41595 whole entry): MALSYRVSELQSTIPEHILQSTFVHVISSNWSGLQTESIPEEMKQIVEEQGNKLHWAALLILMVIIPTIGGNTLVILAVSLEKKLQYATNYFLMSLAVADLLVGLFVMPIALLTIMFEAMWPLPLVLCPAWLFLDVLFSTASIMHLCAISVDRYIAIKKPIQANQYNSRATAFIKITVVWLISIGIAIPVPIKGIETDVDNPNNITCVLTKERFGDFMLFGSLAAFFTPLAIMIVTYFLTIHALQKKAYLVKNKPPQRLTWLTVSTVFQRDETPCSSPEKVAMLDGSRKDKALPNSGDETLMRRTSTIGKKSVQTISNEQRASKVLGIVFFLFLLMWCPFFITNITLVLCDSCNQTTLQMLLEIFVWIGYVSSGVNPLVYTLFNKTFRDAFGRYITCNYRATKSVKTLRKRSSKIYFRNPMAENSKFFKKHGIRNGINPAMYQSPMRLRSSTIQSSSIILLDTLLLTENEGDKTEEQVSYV

[8] = molecular target: T1, CCK (Homo sapiens, UniProt P32238); assay: InVEST radioligand filter binding, CCK; settings: CCK, M13 20 μM, 100 = no effect
T1 sequence (P32238 1-428): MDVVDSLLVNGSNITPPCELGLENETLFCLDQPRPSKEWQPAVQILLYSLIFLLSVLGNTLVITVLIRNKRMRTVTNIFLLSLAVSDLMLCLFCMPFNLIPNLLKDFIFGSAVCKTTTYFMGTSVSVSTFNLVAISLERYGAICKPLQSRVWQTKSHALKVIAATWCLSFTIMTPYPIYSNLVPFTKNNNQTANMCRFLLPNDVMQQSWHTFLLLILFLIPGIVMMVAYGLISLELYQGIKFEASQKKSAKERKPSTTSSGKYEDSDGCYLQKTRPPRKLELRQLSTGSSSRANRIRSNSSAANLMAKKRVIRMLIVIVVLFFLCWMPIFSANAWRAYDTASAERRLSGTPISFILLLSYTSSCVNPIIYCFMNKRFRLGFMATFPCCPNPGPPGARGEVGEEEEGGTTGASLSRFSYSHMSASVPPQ

[9] = test system: HCT-116 cells; assay: MTT cytotoxicity, 2D HCT-116; assay type: cell-based, human; settings: 24 h
[10] = molecular target: PDE4A (Homo sapiens, UniProt P27815); assay: InVEST enzymatic activity, PDE4A; assay type: biochemical; settings: M13 20 μM, 100 = no effect
Chain of PDE4A (P27815 whole entry): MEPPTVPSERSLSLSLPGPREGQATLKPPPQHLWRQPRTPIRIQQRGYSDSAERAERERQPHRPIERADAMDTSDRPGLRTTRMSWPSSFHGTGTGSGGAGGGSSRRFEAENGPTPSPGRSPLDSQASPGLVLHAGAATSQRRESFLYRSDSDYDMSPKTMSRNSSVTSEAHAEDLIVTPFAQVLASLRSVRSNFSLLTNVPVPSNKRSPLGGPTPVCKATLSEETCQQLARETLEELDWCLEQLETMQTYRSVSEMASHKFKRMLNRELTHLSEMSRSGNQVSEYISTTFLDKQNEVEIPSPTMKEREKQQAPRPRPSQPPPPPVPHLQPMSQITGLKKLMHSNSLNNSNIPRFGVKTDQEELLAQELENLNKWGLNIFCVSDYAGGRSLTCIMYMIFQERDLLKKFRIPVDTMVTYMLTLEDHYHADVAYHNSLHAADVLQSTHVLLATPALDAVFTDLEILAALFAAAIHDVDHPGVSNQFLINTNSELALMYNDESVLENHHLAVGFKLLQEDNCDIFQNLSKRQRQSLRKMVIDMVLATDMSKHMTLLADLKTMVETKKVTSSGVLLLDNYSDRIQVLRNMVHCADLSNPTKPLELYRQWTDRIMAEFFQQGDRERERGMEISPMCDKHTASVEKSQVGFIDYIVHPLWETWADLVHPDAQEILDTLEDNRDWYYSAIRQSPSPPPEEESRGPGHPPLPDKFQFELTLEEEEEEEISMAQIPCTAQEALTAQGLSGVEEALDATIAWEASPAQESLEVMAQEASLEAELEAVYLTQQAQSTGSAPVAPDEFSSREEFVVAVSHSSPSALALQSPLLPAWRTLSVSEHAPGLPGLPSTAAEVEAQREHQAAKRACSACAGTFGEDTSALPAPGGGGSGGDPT

[11] = molecular target: T2, alpha2A adrenergic (Homo sapiens, UniProt P08913); assay: InVEST radioligand filter binding, alpha2A adrenergic; settings: M13 20 μM, 100 = no effect
T2 sequence (P08913 1-465): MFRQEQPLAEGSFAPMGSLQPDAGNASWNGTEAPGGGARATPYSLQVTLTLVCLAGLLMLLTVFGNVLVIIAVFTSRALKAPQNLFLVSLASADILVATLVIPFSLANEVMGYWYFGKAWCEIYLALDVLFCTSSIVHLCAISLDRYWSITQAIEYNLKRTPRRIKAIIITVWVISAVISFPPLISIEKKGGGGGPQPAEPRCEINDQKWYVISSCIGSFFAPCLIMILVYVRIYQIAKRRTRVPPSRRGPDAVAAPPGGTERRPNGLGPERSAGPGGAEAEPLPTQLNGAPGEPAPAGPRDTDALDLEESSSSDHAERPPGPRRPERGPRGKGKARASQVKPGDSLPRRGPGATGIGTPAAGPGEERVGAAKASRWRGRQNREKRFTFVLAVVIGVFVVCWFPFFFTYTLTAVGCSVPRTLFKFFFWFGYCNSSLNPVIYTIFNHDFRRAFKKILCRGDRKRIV

[12] = molecular target: T3, Muscarinic M2 (Homo sapiens, UniProt P08172); assay: InVEST radioligand filter binding, Muscarinic M2; settings: M13 20 μM, 100 = no effect
T3 sequence (P08172 1-466): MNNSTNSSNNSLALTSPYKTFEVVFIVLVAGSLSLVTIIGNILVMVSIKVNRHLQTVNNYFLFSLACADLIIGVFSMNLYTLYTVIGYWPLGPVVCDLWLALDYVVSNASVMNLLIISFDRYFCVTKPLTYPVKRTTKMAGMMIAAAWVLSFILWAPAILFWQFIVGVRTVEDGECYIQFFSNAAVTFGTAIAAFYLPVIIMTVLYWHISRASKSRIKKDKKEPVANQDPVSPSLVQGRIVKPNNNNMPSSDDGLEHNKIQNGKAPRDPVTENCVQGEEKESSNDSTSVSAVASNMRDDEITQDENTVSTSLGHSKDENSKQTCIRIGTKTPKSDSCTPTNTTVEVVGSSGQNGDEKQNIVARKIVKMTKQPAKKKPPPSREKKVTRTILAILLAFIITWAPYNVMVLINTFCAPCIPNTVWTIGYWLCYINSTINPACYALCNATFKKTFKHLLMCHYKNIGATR

[13] = molecular target: Opioid kappa (Homo sapiens, UniProt P41145); assay: InVEST radioligand filter binding, Opioid kappa; settings: M13 20 μM, 100 = no effect
Chain of Opioid kappa (P41145 whole entry): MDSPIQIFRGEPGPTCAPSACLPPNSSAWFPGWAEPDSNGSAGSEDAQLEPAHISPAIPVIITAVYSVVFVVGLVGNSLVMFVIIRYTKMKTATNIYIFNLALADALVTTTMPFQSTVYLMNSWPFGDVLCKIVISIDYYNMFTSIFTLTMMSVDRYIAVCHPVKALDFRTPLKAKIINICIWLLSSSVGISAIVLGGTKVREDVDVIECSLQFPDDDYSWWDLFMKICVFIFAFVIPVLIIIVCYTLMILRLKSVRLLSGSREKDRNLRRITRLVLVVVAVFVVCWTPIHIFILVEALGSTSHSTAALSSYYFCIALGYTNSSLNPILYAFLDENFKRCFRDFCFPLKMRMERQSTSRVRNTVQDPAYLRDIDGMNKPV

[14] = molecular target: Muscarinic M3 (Homo sapiens, UniProt P20309); assay: InVEST radioligand filter binding, Muscarinic M3; settings: M13 20 μM, 100 = no effect
Chain of Muscarinic M3 (P20309 whole entry): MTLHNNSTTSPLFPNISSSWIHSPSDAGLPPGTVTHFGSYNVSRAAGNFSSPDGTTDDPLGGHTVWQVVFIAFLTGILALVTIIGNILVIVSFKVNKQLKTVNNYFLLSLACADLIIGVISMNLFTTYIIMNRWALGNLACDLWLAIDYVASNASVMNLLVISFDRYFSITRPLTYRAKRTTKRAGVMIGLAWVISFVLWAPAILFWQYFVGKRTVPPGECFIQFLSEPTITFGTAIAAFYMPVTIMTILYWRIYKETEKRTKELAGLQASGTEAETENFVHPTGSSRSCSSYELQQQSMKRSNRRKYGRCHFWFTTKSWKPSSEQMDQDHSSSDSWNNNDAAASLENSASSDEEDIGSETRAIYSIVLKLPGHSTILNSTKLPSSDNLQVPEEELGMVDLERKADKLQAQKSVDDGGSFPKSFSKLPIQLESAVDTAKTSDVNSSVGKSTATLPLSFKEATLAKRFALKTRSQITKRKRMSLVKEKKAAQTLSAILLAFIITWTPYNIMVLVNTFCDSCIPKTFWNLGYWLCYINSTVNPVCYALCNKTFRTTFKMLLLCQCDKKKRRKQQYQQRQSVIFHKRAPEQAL

[15] = molecular target: Muscarinic M1 (Homo sapiens, UniProt P11229); assay type: binding; settings: M13 20 μM, 100 = no effect
Chain of Muscarinic M1 (P11229 whole entry): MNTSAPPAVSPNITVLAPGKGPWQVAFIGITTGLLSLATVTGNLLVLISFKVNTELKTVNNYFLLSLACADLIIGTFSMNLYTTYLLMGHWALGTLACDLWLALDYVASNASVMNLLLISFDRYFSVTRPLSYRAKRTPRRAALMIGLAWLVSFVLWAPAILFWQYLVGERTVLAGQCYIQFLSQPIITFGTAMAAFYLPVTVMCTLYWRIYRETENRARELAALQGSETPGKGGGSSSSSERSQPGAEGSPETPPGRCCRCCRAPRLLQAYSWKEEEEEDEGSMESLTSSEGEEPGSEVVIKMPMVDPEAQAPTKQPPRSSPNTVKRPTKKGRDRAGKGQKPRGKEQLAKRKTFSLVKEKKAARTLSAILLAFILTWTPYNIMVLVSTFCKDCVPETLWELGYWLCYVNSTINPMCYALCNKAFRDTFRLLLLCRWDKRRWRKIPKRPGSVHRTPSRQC

[16] = test system: Caco-2/BBe cells; assay: Cell cycle control phospho-antibody array; assay type: cell-based, human; settings: 24 h, p < 0.01
[17] = molecular target: beta1 adrenergic (Homo sapiens, UniProt P08588); assay: InVEST radioligand filter binding, beta1 adrenergic; settings: M13 20 μM, 100 = no effect
Chain of beta1 adrenergic (P08588 whole entry): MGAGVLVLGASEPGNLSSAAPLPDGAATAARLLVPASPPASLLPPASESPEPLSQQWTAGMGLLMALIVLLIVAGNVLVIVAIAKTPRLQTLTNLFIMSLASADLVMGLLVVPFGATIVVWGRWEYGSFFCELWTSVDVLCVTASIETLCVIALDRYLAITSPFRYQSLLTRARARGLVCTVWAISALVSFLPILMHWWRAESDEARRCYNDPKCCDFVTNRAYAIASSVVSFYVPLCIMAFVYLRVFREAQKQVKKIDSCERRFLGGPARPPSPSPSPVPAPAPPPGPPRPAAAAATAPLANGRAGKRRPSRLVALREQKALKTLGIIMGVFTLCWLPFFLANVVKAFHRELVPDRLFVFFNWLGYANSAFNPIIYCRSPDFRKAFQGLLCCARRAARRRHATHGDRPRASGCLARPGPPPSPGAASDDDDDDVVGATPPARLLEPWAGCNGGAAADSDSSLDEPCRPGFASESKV

Chain of Opioid mu (P35372 whole entry): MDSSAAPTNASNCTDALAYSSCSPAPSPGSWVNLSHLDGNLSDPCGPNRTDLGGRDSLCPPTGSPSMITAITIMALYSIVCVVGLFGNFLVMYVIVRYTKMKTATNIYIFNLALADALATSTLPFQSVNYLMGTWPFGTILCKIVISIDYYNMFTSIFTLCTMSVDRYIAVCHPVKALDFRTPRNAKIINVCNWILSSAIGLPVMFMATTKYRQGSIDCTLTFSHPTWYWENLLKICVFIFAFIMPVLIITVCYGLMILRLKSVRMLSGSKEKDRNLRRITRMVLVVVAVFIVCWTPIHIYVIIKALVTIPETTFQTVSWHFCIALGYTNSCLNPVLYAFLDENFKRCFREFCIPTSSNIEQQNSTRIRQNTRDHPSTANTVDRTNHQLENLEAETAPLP

CCCCCC(CC(=O)CCc1ccc(O)c(OC)c1)SC[C@H](NC(=O)CC[C@H](N)C(=O)O)C(=O)NCC(=O)O (stereo partly shown) [M13, 5-glutathione-6-shogaol]
thermodynamic (or equilibrium) solubility [1]: 1390.03 µM
% Activity Data 1 ([2]; repetition 1): 98%
% Activity Data 2 ([2]; repetition 2): 96%
BCL-x expression vs. Control and statistical significance [3]: Down-regulation, ^*
CCL20/MIP-3α expression vs. Control and statistical significance [3]: Down-regulation, ^**
CEACAM-5 expression vs. Control and statistical significance [3]: Down-regulation, ^*
CXCL8/IL-8 expression vs. Control and statistical significance [3]: Down-regulation, ^*
CapG expression vs. Control and statistical significance [3]: Down-regulation, ^*
Cathepsin B expression vs. Control and statistical significance [3]: Down-regulation, ^*
Cathepsin D expression vs. Control and statistical significance [3]: Down-regulation, ^*
Cathepsin S expression vs. Control and statistical significance [3]: Down-regulation, ^**
Dkk-1 expression vs. Control and statistical significance [3]: Down-regulation, ^**
EGFR expression vs. Control and statistical significance [3]: Down-regulation, ^*
Enolase 2 expression vs. Control and statistical significance [3]: Down-regulation, ^*
ErbB2/Her2 expression vs. Control and statistical significance [3]: Down-regulation, ^**
ErbB3/Her3 expression vs. Control and statistical significance [3]: Down-regulation, ^***
Galectin-3 expression vs. Control and statistical significance [3]: Down-regulation, *
HNF-3β expression vs. Control and statistical significance [3]: Down-regulation, ^**
HO-1/HMOX1 expression vs. Control and statistical significance [3]: Down-regulation, ^***
P27/Kip1 expression vs. Control and statistical significance [3]: Down-regulation, ^**
PDGF-AA expression vs. Control and statistical significance [3]: Down-regulation, ^*
Progranulin expression vs. Control and statistical significance [3]: Down-regulation, ^*
Prostasin/Prss8 expression vs. Control and statistical significance [3]: Down-regulation, ^*
Survivin expression vs. Control and statistical significance [3]: Down-regulation, ^***
TROP1/EpCAM expression vs. Control and statistical significance [3]: Down-regulation, ^***
relative contents of M13 before and after incubation [4]: consistent
sizes of 3D cell spheres ([5]; 11 days culture, regardless of the group): did not change significantly
green fluorescence intensity of 3D cell spheres (live cells) vs NC group ([5]; M13 ≥ 80 μM, day 11, p < 0.05): significantly lower
% Activity Data 1 ([6]; repetition 1): 99%
% Activity Data 2 ([6]; repetition 2): 98%
% Activity Data 1 ([7]; repetition 1): 109%
% Activity Data 2 ([7]; repetition 2): 113%
% Activity Data 1 ([8]; repetition 1): 94%
% Activity Data 2 ([8]; repetition 2): 92%
IC50 ([9]; HCT-116, MTT): 40.1 µM
fold by which IC50 against HIEC-6 is higher than against HCT-116 ([9]; MTT): 2.5 fold
% Activity Data 1 ([10]; repetition 1): 93%
% Activity Data 2 ([10]; repetition 2): 94%
% Activity Data 1 ([11]; repetition 1): 92%
% Activity Data 2 ([11]; repetition 2): 100%
% Activity Data 1 ([12]; repetition 1): 93%
% Activity Data 2 ([12]; repetition 2): 115%
% Activity Data 1 ([13]; repetition 1): 95%
% Activity Data 2 ([13]; repetition 2): 93%
% Activity Data 1 ([14]; repetition 1): 100%
% Activity Data 2 ([14]; repetition 2): 103%
% Activity Data 1 ([15]; repetition 1): 111%
% Activity Data 2 ([15]; repetition 2): 113%
CDC25A expression compared with the control and NL groups [16]: down-regulated
phosphorylated CDC25A (p-CDC25A) compared with the control and NL groups [16]: down-regulated
% Activity Data 1 ([17]; repetition 1): 120%
% Activity Data 2 ([17]; repetition 2): 116%
